Read-outs that look alike come from different tables or passages of the source. Ends that are not written are not given here. Where only a bound is given, the exact number is not on record here.

The results in this text go back to patent publication US20180280480A1, “COMPOSITIONS AND PEPTIDES HAVING DUAL GLP-1R AND GLP-2R AGONIST ACTIVITY” (priority 2014, published 2018).

Experiment [1] concerns C57BL/6J mice. The experiment can be described thus: GLP1R-GLP2R dual agonist compound study: cumulative food intake. The format is in vivo. To be noted: Day 0-7; 3.0 mg/kg BID SC; mean ± S.E.M. An excerpt: (§1) Forty (40, n=10, 4 groups) male C57BL/6J mice obtained from Taconic, Denmark, were used. At the time of the experiment, the mice had reached an age of 9-10 weeks. The mice were acclimatized for one week in their new environment and offered regular chow diet (Altromin 1324, Brogaarden A/S, Denmark) and domestic quality tap water. Animals were housed two per cage during the study, in a light-, temperature-, and humidity-controlled room (12-hour light: 12-hour dark cycle, lights on/off at 4 AM/4 PM hour; 22±1° C.; 50±10% relative humidity). […] Animals were uniquely identified with implantable microchips (Pet ID Microchip, E-vet) in all mice upon arrival. Animals were identified using the WS-2 weight station (MBrose ApS, Faaborg, Denmark) connected to a laptop running the HM02Lab software (Ellegaard Systems, Faaborg, Denmark). The HM02Lab software matches the body weight with ID and calculates the dose directly based on the body weight. All mice were handled for 3 days prior to the experiment to acclimatize the animals to handling and injections.

Experiment [2] relates to C57BL/6J mice. Description: GLP1R-GLP2R dual agonist compound study: oral glucose tolerance test. Format: in vivo. The following applies: Day 7; 3.0 mg/kg BID SC; glucose 2 g/kg oral; mean ± S.E.M. The protocol:
On day 7, an oral glucose tolerance test (OGTT) was performed. Animals were mildly fasted as all food was removed 4 hours prior to the oral glucose load. Vehicle (SC) and compounds were administered subcutaneously (SC) 2 hours prior to the OGTT. At t=0 mice received an oral glucose load (2 g/kg; 4 ml/kg; 500 mg/ml, Fresenius Kabi, Sweden). Glucose was given as gavage via a gastrically-placed tube connected to a syringe ensuring accurate dosing. Blood glucose was measured from tail vein blood before glucose (at t=−120 and 0 min, baseline) and after glucose administration at t=15, 30, 60 and 120 min. Blood samples (tail vein) was collected into 10 μl heparinized glass capillary tubes and immediately suspended in buffer (0.5 ml of glucose/lactate system solution (EKF-diagnostics, Germany) and analyzed for glucose on the test day using a BIOSEN c-Line glucose meter (EKF-diagnostics, Germany) according to manufacturer's instructions. Results from the OGTT are listed below in Table 11.

In experiment [3] the test system is C57BL/6J mice. Description: GLP1R-GLP2R dual agonist compound study: gut wet weight. To be noted: Day 8; 3.0 mg/kg BID SC; mean ± S.E.M. Format: in vivo. An excerpt:
On study day 8, the mice were terminated and the GI tract was removed for determination of the gut wet weight. The gut wet weight results are listed below in Table 12.

The target in the next experiment is T1, GLP-2R (Homo sapiens, UniProt O95838).
T1 sequence (O95838 1-553): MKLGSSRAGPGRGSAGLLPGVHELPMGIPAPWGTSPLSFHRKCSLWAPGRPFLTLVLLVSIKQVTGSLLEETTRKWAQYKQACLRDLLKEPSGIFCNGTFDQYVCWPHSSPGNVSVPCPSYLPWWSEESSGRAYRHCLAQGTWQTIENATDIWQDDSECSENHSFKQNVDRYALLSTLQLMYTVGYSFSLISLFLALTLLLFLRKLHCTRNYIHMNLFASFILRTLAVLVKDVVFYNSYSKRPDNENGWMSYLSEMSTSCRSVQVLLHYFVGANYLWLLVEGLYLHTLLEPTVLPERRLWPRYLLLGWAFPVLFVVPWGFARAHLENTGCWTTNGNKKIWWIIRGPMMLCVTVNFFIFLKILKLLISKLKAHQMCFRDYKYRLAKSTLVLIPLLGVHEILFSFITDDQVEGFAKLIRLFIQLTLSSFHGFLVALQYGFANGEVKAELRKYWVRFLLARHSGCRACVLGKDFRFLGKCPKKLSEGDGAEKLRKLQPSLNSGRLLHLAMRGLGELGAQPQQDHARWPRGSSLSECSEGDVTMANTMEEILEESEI
The experiment can be described thus: GLP2 receptor efficacy assay (in vitro functional screen, Euroscreen or DiscoveRx). The following applies: EC50 of native GLP-2 / EC50 of compound.

Experiment [4] deals with C57BL/6J mice. Description: Gut proliferation in C57BL/6J mice, PoC study 2 (liraglutide and teduglutide). Format: in vivo.
Excerpt: as §1

The test system of experiment [5] is C57BL/6J mice.
Description: The subcutaneous injections were placed at the lower back. On study day 8, the mice were terminated and the GI tract was removed for weight determination.
For the next experiment, the system named is lean C57BL/6J mice. Description: Sub-acute effect on body weight in lean C57BL/6J mice. The following applies: for Body weight change in percent to baseline body weight: 50 nmol/kg BID SC, mean ± S.E.M. The format is in vivo. The protocol: Eighteen (18) male C57/BL6J mice obtained from Janvier, France, were used. At the time of experimentation the mice had reached an age of 9 weeks. The mice were acclimatized for one week in their new environment and offered regular chow diet (Altromin 1324, Brogaarden A/S, Denmark) and domestic quality tap water. Animals were housed six per cage during the study, in a light-, temperature-, and humidity-controlled room (12-hour light:12-hour dark cycle, lights on/off at 4 AM/4 PM hour; 22±1° C.; 50±10% relative humidity).
Dosing volume was 5 ml/kg, SC.
The compounds were dissolved in PBS buffer containing 0.1% BSA, pH 7.4. The subcutaneous injections were placed at the lower back. All mice were handled for 3 days prior to experimentation to acclimatize the animals to handling and injections.

For another experiment, the system named is lean NMRI mice. Description: Acute effect on food intake in lean NMRI mice. The format is in vivo. To be noted: for Cumulative food intake following administration of a single dose: 50 nmol/kg s.c., mean ± S.E.M. The protocol: All animals were housed in groups of four. The animal room environment were controlled (targeted ranges: temperature 22±2° C.; relative humidity 50±10%; light/dark cycle: 12 hours light, 12 hours dark, lights off from 14.00 to 02.00 hours). The mice had ad libitum access to Altromin (Brogaarden, Denmark) and tap water. Mice arrived 5 days prior to the initiation of the study and were transferred to the HM-2 system. From arrival day no food was provided in the cages thereby forcing the animals to learn to eat from the food channels thus habituating the animals faster to the HM-2 system. Food intake and body weight were measured from day −3 and throughout the study. Food intake data were collected using the HM-2 real-time food intake monitoring system, an online computerized feeding system using digital weighing cells. As the animals were uniquely identified with microchips, each individual mouse was identified by its corresponding microchip upon entry and exit from the food channel. The HM-2 system continuously and in real-time mode monitored feeding activity in two independent channels and recorded the start and finishing time of each meal and the amount of food consumed by each animal within the selected time interval without human intervention. The net food intake was calculated by the HM-2 control unit software (HMLab, MBRose, Faaborg, Denmark).
Doses were administered subcutaneously (dose volume 5 ml/kg), in the lower back region. Food intake was measured up to 68 hours following the dosing of the animals.

Experiment [6] has as its target T2, human GLP-2 receptor (human, UniProt O95838 1-553, limits assumed).
T2 sequence (looked up): T1 sequence (O95838 1-553)
Description: cell-based or functional assay.

The target in experiment [7] is T3, human GLP-1 receptor (human, UniProt P43220 24-463, limits assumed). The experiment can be described thus: cell-based or functional assay.
Experiment [8] deals with T2, human GLP-2 receptor. The experiment can be described thus: cell-based or functional assay. This is another data set of the same source.
The target in experiment [9] is T3, human GLP-1 receptor. Description: cell-based or functional assay. This is another data set of the same source.
[10] abbreviates: Day 8, BID SC, liraglutide 0.2 mg/kg, teduglutide 1.0 mg/kg, alone or combined, mean ± S.E.M.

In the case of `CC[C@H](C)[C@H](NC(=O)[C@H](Cc1ccccc1)NC(=O)[C@H](CC(=O)O)NC(=O)[C@H](CCCNC(=N)N)NC(=O)[C@H](C)NC(=O)[C@H](C)NC(=O)[C@H](CC(C)C)NC(=O)[C@H](CC(N)=O)NC(=O)[C@H](CC(=O)O)NC(=O)[C@H](CC(C)C)NC(=O)[C@@H](NC(=O)[C@@H](NC(=O)[C@H](CC(N)=O)NC(=O)[C@H](CCSC)NC(=O)[C@H](CCC(=O)O)NC(=O)[C@H](CC(=O)O)NC(=O)[C@H](CO)NC(=O)[C@H](Cc1ccccc1)NC(=O)[C@H](CO)NC(=O)CNC(=O)[C@H](CC(=O)O)NC(=O)CNC(=O)[C@@H](N)Cc1c[nH]cn1)[C@@H](C)O)[C@@H](C)CC)C(=O)N[C@@H](CC(N)=O)C(=O)N[C@@H](Cc1c[nH]c2ccccc12)C(=O)N[C@@H](CC(C)C)C(=O)N[C@H](C(=O)N[C@@H](CCC(N)=O)C(=O)N[C@H](C(=O)N[C@@H](CCCCN)C(=O)N[C@H](C(=O)N[C@H](C(=O)N[C@@H](CC(=O)O)C(=O)O)[C@@H](C)O)[C@@H](C)CC)[C@@H](C)O)[C@@H](C)CC` [Teduglutide], the Cumulative food intake in the experiment on C57BL/6J mice [1] was 31.82 ± 6.52 g. The “Oral glucose tolerance test AUC, 0-120 min” value in the experiment with C57BL/6J mice [2] amounted to 890 ± 182 mmol·min/L. The molecule further showed a Gut wet weight in the experiment with C57BL/6J mice [3] of 3.0 ± 0.3 g. At GLP-2R, the “relative GLP-2 activity” value is 1.0. In addition, in the experiment on C57BL/6J mice [4] (setting [10]), the Gut wet weight is recorded as 2.6 ± 0.2 ^### g, the Large intestine length is given as 5.1 ± 0.6 cm, the Large intestine weight is recorded as 0.26 ± 0.03 g and the Small intestine length was found to be 22.9 ± 1.6 cm. In addition, the Small intestine weight with C57BL/6J mice [4] (setting [10]) came out at 1.3 ± 0.2 g. In addition, the “effect of single treatment on gut weight and length” value with C57BL/6J mice [4] (PoC study 2, Tables 5, 6, 8, 9) is “increases in gut wet weight (Table 5), small intestine weight (Table 6) and small intestine length (Table 8)”.

As to `CC[C@H](C)[C@H](NC(=O)[C@H](Cc1ccccc1)NC(=O)[C@H](CC(=O)O)NC(=O)[C@H](CCCNC(=N)N)NC(=O)[C@H](C)NC(=O)[C@H](C)NC(=O)[C@H](CC(C)C)NC(=O)[C@H](CC(N)=O)NC(=O)[C@H](CC(=O)O)NC(=O)[C@H](CC(C)C)NC(=O)[C@@H](NC(=O)[C@@H](NC(=O)[C@H](CC(N)=O)NC(=O)[C@H](CCSC)NC(=O)[C@H](CCC(=O)O)NC(=O)[C@H](CC(=O)O)NC(=O)[C@H](CO)NC(=O)[C@H](Cc1ccccc1)NC(=O)[C@H](CO)NC(=O)CNC(=O)[C@H](CC(=O)O)NC(=O)[C@H](C)NC(=O)[C@@H](N)Cc1c[nH]cn1)[C@@H](C)O)[C@@H](C)CC)C(=O)N[C@@H](CC(N)=O)C(=O)N[C@@H](Cc1c[nH]c2ccccc12)C(=O)N[C@@H](CC(C)C)C(=O)N[C@H](C(=O)N[C@@H](CCC(N)=O)C(=O)N[C@H](C(=O)N[C@@H](CCCCN)C(=O)N[C@H](C(=O)N[C@H](C(=O)N[C@@H](CC(=O)O)C(=O)O)[C@@H](C)O)[C@@H](C)CC)[C@@H](C)O)[C@@H](C)CC` [GLP-2], the Total intestine weight in the experiment with C57BL/6J mice [5] (Day 8, 3 mg/kg BID SC, female C57BL/6J mice, mean ± S.E.M.) amounted to 1256 ± 30.1 mg. In the experiment with C57BL/6J mice [5] (seven days of dosing, 3.0 mg/kg each BID SC), the “increase in intestinal weight compared to vehicle” value is “approx. 25%”.

For “R^1-H-G-D-G-S-F-T-S-E-L-S-T-Y-[K(C16-yE-)]-DALAARDFIAWLIQTKITDR^2 [SEQ ID NO 23]”, the “effect on body weight” value in the experiment with lean C57BL/6J mice (50 nmol/kg, after two days of administration, sustained up to seven days) was “significantly reduced the body weight”. Moreover, the “Body weight change in percent to baseline body weight” value amounted to 100.0 ± 0.0% in the experiment on lean C57BL/6J mice (Day 0), 90.7 ± 0.8 % with lean C57BL/6J mice (Day 2), 89.5 ± 1.8 % with lean C57BL/6J mice (Day 5) and 90.8 ± 1.4 % in the experiment on lean C57BL/6J mice (Day 7). Also, the “acute food intake compared to vehicle” value with lean NMRI mice (12 and 24 hours after single dose of 50 nmol/kg) is “significantly reduce acute food intake to an similar extend as liraglutide”. Besides, the “Cumulative food intake following administration of a single dose” value in the experiment on lean NMRI mice (12 h after dosing) came to 1.82 ± 0.24 grams pr mice; in the experiment on lean NMRI mice (24 h after dosing), 2.83 ± 0.22 grams pr mice; in the experiment with lean NMRI mice (60 h after dosing), 11.43 ± 1.97 grams pr mice. Besides, the “food intake compared to vehicle” value in the experiment on lean NMRI mice (60 hours after single dose of 50 nmol/kg) is “tends to still have an effect”.

For HAEGTFTSDVSSYLEGQAAKEFIAWLVKG (ligand, ends and bridges not checked) [native human GLP-1], the “GLP-2R, EC50” value with human GLP-2 receptor [6] is over 100 nM; with human GLP-2 receptor [8], over 1000 nM. Further, the “GLP-1R, EC50” value in the experiment with human GLP-1 receptor [7] was 0.004 nM; with human GLP-1 receptor [9] it was 0.026 nM.
